# Measurements: PMC10439028, “SGLT5 is the renal transporter for 1,5-anhydroglucitol, a major player in two rare forms of neutropenia” (Cellular and Molecular Life Sciences: CMLS, 2023)
# Like-named read-outs stand apart in the source and are kept apart here.
# Tests used:
# [1] = biological target: T1, human SGLT5 (Homo sapiens, UniProt A0PJK1); assay: Inhibition of 10 µM radiolabelled 1,5-AG transport in HEK293T cells overexpressing human SGLT5; assay type: cell-based
# T1 construct: expressed in transfected cells
# T1 sequence (A0PJK1 1-596): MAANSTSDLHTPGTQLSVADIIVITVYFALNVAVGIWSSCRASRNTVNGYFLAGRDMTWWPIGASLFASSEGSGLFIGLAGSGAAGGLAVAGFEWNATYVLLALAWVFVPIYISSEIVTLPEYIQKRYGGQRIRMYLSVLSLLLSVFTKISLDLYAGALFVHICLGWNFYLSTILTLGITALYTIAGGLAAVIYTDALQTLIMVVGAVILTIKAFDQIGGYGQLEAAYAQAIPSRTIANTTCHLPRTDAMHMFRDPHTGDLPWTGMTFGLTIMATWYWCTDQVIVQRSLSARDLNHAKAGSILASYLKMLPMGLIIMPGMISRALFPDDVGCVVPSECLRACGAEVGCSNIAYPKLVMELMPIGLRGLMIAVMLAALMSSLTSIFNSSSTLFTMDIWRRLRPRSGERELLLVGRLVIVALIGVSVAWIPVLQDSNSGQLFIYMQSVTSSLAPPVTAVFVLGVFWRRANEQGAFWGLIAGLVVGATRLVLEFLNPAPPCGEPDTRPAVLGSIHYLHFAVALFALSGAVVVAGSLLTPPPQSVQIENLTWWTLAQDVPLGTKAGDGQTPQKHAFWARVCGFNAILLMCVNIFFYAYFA
# Description: (§1) For a typical transporter experiment we proceeded as follows. […] To minimize cell loss during the various washing steps in the radioactive uptake experiments, the wells where the cells were seeded were previously coated with poly- D-lysine, which improved their adhesion to the plastic surface of the wells. For this, each well of the 24-well plates was treated with 200 µl of a 0.01% poly-L-lysine solution for 10 min, washed 3 times with 1 ml of sterilized water and left to dry for 2 h. Only then could the 24-well plates be seeded with the appropriate cell lines and cultured overnight at 37 °C in 5% CO2.
# On day two, the radioactive uptake assay could be performed. The cell culture media was removed by aspiration and cells were incubated for 20 min at 37 °C and 5% CO2 with a basal medium (10 mM HEPES, pH 7.4, 1 mM CaCl2, 1 mM MgCl2, 2 mM KCl) containing 140 mM choline chloride to deplete intracellular […] ions. This was subsequently replaced with the uptake medium (basal medium + 140 mM NaCl, 25 μM cytochalasin B, 1 mg/ml BSA) containing either radioactive U-[^14C]-mannose (15,000 cpm/well) or 2-[^3H]-1,5-AG (30,000 cpm/well) and respectively, non-radioactive mannose or 1,5-AG, at the required concentration in the experiment. Importantly, when measuring the transport of mannose, the uptake media also contained 0.5 mM glucose. This resulted from the need to reduce the background transport of mannose in control HEK293T cells in order to optimize the transport assay for this sugar in our model cell lines. Consequently, after testing various inhibitors (Supplementary Fig. 1), 0.5 mM glucose + 25 µM cytochalasin B appeared as the best combination to decrease efficiently the endogenous transport of mannose in control cells without affecting the transport of mannose in model cell lines overexpressing SGLT4 and SGLT5. Therefore in the radioactive uptake assays for mannose, the uptake medium was: basal uptake medium + 140 mM NaCl, 25 μM cytochalasin B, 0.5 mM glucose and 1 mg/ml BSA to which we added U-[^12C + ^14C]-mannose as described above.
# (§2) Once the uptake medium was added to the cells, the plates were incubated at 37 °C in 5% CO2 during the required time. […] In each experiment, the transport activities were calculated after subtracting a “blank” value, corresponding to the radioactivity in the appropriate control cells (HEK293T cells that were stably or transiently transfected with one of the parent plasmids pEF6/MycHisA, pEF6HisB, pUB82 or pUB83 with no inserted cDNA) that were analyzed in parallel.
# The transport experiments to study the specificity of SGLT4 or SGLT5, were performed in the presence of 10 µM U-[^14C + ^12C]-mannose (for SGLT4) or 2-[^3H + ^1H]-1,5-AG (for SGLT5) and increasing concentrations of various sugars tested. The transport experiments to study the inhibition of empagliflozin, dapagliflozin or remogliflozin, on the transport of 1,5-AG by SGLT5 or its variants were performed in the presence of 10 µM 2-[^3H + ^1H]-1,5-AG and increasing concentrations of the various gliflozins tested.
# [2] = biological target: T1, human SGLT5; assay: Radioactive uptake assay (saturation kinetics) in HEK293T cells stably overexpressing human SGLT5-iso2; assay type: cell-based; details: for hSGLT5 Vmax: transport of the labelled substrate, Fig. 2B
# Text: This assay was used to study (1) the transport of 1,5-AG or mannose by the HEK293T model cell lines that stably overexpressed the various transporters or by the transiently transfected HEK293T cells using JetPEI® as a transfection agent prepared as described above and (2) the substrate specificity of each transporter.
# as §1
# On day two, the radioactive uptake assay could be performed. The cell culture media was removed by aspiration and cells were incubated for 20 min at 37 °C and 5% CO2 with a basal medium (10 mM HEPES, pH 7.4, 1 mM CaCl2, 1 mM MgCl2, 2 mM KCl) containing 140 mM choline chloride to deplete intracellular […] ions. This was subsequently replaced with the uptake medium (basal medium + 140 mM NaCl, 25 μM cytochalasin B, 1 mg/ml BSA) containing either radioactive U-[^14C]-mannose (15,000 cpm/well) or 2-[^3H]-1,5-AG (30,000 cpm/well) and respectively, non-radioactive mannose or 1,5-AG, at the required concentration in the experiment. […]
# as §2
# [3] = substrate 10 μM 1,5-AG, unlabelled sugars, Fig. 3C, read-out: hSGLT5 IC50
"IC50 ([1]; 10 µM 2-[1H+3H]-1,5-AG, Fig. 5C, read-out: IC50 for SGLT5-mediated 1,5-AG transport (gliflozins)) [µM]",SMILES,"IC50 ([1]; 10 µM 2-[1H+3H]-1,5-AG, Supplementary Fig. 7, read-out: IC50 for 1,5-AG, SGLT5-WT) [µM]","preference of 1,5-AG over glucose, difference in Ki ([1]; SGLT5) [fold]","IC50 [1, 3] [µM]","Vmax ([2]; hSGLT5 WT, Table 1 experiments) [pmol/min/10^5cells]",hSGLT5 Vmax [2] [pmol/min/10^5 cells]
0.7,OC[C@H]1O[C@@H](c2ccc(Cl)c(Cc3ccc(O[C@H]4CCOC4)cc3)c2)[C@H](O)[C@@H](O)[C@@H]1O [empagliflozin],,,,,
,"OC[C@H]1OC[C@H](O)[C@@H](O)[C@@H]1O [1,5-AG, 1,5-anhydroglucitol]",162,20,167,17.3 ± 0.3,14.1 ± 0.8
,"OC[C@H]1OC(O)[C@@H](O)[C@@H](O)[C@@H]1O (some centres unmarked) [Mannose, mannose]",,,380,,44.7 ± 12.4
